Test results: patent US20230295119A1, “SUBSTITUTED PYRIDINES FOR THE TREATMENT OF INFLAMMATORY DISEASES” (GOSSAMER BIO SERVICES, INC., priority 2020, published 2023)
Like-named read-outs stand apart in the source and are kept apart here.

Experiments:
human JAK1 = human JAK1 (Homo sapiens (Human), UniProt P23458); assay: JAK1 TR-FRET kinase assay; type: biochemical
human JAK3 = human JAK3 (Homo sapiens (Human), UniProt P52333); assay: JAK3 TR-FRET kinase assay; type: biochemical; details: JAK3 0.0125 nM
Chain of human JAK3 (P52333 whole entry): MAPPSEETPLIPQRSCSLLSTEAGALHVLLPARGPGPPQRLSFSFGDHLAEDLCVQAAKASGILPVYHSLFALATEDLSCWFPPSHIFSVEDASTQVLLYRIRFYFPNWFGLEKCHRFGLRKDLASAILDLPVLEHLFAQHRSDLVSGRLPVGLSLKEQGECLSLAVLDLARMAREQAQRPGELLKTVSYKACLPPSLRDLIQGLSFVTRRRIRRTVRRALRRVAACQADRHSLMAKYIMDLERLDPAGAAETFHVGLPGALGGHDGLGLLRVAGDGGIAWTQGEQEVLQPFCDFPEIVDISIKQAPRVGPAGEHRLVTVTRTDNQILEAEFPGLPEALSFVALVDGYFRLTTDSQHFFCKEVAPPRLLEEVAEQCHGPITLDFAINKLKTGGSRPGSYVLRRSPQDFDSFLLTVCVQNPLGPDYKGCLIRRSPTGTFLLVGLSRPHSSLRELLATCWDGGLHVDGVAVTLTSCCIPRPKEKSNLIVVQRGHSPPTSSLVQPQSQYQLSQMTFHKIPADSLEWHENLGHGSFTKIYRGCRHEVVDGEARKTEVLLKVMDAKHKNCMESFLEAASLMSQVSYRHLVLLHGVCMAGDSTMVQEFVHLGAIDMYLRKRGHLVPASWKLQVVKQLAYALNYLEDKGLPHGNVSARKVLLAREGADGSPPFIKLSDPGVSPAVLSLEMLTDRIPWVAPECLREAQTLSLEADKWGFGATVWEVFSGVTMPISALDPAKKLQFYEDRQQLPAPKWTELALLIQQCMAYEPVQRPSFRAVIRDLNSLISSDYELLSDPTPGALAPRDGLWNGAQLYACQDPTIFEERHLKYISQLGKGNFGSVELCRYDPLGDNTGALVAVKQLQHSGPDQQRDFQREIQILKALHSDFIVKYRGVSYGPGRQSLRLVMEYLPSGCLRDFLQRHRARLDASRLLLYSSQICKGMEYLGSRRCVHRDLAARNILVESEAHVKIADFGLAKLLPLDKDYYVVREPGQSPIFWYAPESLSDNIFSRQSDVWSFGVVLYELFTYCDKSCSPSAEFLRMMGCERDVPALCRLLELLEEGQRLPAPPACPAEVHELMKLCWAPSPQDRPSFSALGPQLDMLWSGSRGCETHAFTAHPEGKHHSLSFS

human JAK2 = human JAK2 (Homo sapiens (Human), UniProt O60674); assay: JAK2 TR-FRET kinase assay; type: biochemical; details: JAK2 0.025 nM
Chain of human JAK2 (O60674 whole entry, the tested form may be a part): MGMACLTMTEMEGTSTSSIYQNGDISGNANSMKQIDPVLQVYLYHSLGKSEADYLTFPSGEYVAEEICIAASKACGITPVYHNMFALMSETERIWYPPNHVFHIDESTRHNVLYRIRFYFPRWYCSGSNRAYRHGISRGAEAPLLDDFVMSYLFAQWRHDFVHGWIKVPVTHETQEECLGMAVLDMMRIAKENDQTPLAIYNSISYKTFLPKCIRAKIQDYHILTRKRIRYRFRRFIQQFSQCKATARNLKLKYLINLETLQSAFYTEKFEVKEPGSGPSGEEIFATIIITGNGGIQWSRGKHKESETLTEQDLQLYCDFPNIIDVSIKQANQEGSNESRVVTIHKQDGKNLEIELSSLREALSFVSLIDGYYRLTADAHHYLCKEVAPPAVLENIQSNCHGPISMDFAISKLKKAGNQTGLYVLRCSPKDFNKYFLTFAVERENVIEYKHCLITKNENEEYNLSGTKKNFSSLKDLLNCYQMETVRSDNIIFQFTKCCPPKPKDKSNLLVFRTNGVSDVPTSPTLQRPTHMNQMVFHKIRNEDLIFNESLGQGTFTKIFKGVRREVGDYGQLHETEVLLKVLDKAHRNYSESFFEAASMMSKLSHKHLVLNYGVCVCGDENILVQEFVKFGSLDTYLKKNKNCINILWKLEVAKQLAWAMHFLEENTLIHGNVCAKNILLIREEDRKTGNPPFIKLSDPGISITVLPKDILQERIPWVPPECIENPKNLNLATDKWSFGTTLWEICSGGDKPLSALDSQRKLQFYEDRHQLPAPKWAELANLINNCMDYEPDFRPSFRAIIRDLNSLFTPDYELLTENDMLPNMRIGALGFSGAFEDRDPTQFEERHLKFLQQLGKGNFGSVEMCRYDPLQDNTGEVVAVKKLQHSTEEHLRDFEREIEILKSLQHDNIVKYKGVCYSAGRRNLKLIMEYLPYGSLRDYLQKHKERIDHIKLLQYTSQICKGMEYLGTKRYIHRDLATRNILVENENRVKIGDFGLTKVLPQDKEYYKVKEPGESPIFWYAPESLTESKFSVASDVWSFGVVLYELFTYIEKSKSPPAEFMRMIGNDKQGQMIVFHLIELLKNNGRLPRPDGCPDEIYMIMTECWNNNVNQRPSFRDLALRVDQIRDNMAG

TYK2 JH2 domain = TYK2 JH2 domain (Homo sapiens (Human), UniProt P29597); assay: TYK2 JH2 NanoBRET assay; type: binding; details: Table 20, read-out: TYK2 IC50
Chain of TYK2 JH2 domain (P29597 589-875): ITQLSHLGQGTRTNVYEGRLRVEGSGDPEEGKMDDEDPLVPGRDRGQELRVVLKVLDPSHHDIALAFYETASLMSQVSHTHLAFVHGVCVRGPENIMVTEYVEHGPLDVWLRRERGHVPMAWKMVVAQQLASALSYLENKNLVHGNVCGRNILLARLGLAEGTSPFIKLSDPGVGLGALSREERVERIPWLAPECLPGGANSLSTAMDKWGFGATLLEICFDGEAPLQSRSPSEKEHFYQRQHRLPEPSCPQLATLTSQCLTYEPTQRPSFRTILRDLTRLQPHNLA
Procedure, shortened: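 Tracer displacement measured by BRET ratio (acceptor over donor) in live HEK293T cells transfected with a NanoLuc-tagged TYK2 JH2 construct; cells co-exposed to test compound and 0.5 µM final K10 tracer for 2 h before substrate/extracellular inhibitor addition.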

Chain of human JAK1 (P23458 whole entry): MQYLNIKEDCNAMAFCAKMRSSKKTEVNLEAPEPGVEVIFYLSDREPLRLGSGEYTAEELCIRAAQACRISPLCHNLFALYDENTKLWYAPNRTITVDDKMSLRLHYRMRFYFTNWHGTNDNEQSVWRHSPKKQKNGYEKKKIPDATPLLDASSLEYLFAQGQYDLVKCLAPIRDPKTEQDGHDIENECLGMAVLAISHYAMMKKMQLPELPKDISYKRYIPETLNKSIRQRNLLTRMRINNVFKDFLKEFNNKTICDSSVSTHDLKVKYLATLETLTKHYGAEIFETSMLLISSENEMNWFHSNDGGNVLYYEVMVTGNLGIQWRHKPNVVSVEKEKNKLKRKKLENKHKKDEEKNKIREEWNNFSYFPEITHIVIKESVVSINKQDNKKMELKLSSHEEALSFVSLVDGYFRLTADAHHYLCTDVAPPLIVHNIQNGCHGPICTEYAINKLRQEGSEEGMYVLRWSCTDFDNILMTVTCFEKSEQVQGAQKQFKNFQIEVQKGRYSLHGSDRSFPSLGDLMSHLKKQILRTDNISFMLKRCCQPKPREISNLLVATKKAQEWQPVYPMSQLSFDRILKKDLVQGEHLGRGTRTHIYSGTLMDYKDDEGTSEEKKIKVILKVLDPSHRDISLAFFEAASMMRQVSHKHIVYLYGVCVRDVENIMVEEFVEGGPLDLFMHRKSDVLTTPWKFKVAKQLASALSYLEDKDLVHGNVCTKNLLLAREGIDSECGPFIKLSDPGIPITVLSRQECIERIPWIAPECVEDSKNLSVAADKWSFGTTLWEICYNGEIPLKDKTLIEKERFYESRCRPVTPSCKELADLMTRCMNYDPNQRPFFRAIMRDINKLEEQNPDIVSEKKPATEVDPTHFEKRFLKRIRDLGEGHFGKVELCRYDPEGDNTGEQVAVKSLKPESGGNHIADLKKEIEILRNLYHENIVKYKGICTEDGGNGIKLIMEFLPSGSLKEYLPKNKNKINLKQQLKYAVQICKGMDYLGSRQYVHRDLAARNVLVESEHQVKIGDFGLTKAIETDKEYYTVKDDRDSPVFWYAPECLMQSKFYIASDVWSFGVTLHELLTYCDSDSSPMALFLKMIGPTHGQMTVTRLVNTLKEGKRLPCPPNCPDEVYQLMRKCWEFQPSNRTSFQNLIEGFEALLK

IC50 (human JAK1; TR-FRET, JAK1 2.5 nM) [nM]	IC50 (human JAK3) [nM]	IC50 (human JAK2) [nM]	IC50 (TYK2 JH2 domain) [nM]	SMILES	IC50 (human JAK1) [nM]
≥ 500	≥ 500	≥ 500	50 to 500	CCC(=O)c1cnc(NC(=O)C2CC2c2ccn(C)n2)cc1Nc1cccc(-c2ncn(C)n2)c1OC (stereo not shown) [Compound 22M]	–
≥ 500	≥ 500	≥ 500	50 to 500	CCC(=O)c1cnc(NC(=O)[C@@H]2C[C@H]2CS(C)(=O)=O)cc1Nc1cccc(-c2ncn(C)n2)c1OC [Compound 22N]	–
≥ 500	≥ 500	≥ 500	5 to 50	CCC(=O)c1cnc(NC(=O)CC2CC2)cc1Nc1cccc(-c2ncn(C)n2)c1OC [Compound 23B]	–
≥ 500	≥ 500	≥ 500	50 to 500	CCC(=O)c1cnc(NC(=O)CC2(O)CC2)cc1Nc1cccc(-c2ncn(C)n2)c1OC [Compound 23C]	–
≥ 500	≥ 500	≥ 500	50 to 500	CCC(=O)c1cnc(NC(=O)CCN2CCCC2)cc1Nc1cccc(-c2ncn(C)n2)c1OC [Compound 23D]	–
≥ 500	≥ 500	≥ 500	50 to 500	CCC(=O)c1cnc(NC(=O)CCCN2CCCC2)cc1Nc1cccc(-c2ncn(C)n2)c1OC [Compound 23E]	–
≥ 500	≥ 500	≥ 500	50 to 500	CCC(=O)c1cnc(NC(=O)CCc2cnn(C)c2)cc1Nc1cccc(-c2ncn(C)n2)c1OC [Compound 23F]	–
≥ 500	≥ 500	≥ 500	≥ 500	CCC(=O)c1cnc(NC(=O)CC2CN(C)C2)cc1Nc1cccc(-c2ncn(C)n2)c1OC [Compound 23G]	–
≥ 500	≥ 500	≥ 500	50 to 500	CCC(=O)c1cnc(NC(=O)CCNC)cc1Nc1cccc(-c2ncn(C)n2)c1OC [Compound 23H]	–
≥ 500	≥ 500	≥ 500	≥ 500	CCC(=O)c1cnc(NC(=O)C2CC2)cc1Nc1cc(C#N)cc(-c2ncn(C)n2)c1OC [Compound 25B]	–
≥ 500	≥ 500	≥ 500	≥ 500	CCC(=O)c1cnc(NC(=O)C2CC2)cc1Nc1cc(CN(C)C)cc(-c2ncn(C)n2)c1OC [Compound 25C]	–
≥ 500	≥ 500	≥ 500	50 to 500	CCC(=O)c1cnc(NC(=O)C2CC2)cc1Nc1cc(CO)cc(-c2ncn(C)n2)c1OC [Compound 25D]	–
≥ 500	≥ 500	≥ 500	50 to 500	CCC(=O)c1cnc(NC(=O)C2CC2)cc1Nc1cc(COC)cc(-c2ncn(C)n2)c1OC [Compound 25E]	–
≥ 500	≥ 500	≥ 500	50 to 500	CCC(=O)c1cnc(NC(=O)C2CC2)cc1Nc1cc(F)cc(-c2ncn(CCO)n2)c1OC [Compound 25F]	–
≥ 500	≥ 500	≥ 500	< 5	COc1c(Nc2cc(Nc3ccc(CS(C)(=O)=O)cn3)ncc2C(=O)C2CC2)cccc1-c1ncn(C)n1 [Compound 130]	–
≥ 500	≥ 500	≥ 500	< 5	CCC(=O)c1cnc(Nc2ccnc(OCCO)n2)cc1Nc1cccc(-c2ncn(C)n2)c1OC [Compound 180]	–
≥ 500	≥ 500	≥ 500	5 to 50	CCC(=O)c1cnc(Nc2ccn([C@H]3C[C@H](C#N)C3)n2)cc1Nc1cccc(-c2ncn(C)n2)c1OC [Compound 210]	–
≥ 500	≥ 500	≥ 500	5 to 50	CCC(=O)c1cnc(Nc2cnc(O[C@H]3CN[C@@H](C(F)F)C3)cn2)cc1Nc1cccc(-c2ncn(C)n2)c1OC [Compound 18000]	–

SMILES	IC50 (human JAK1; TR-FRET, JAK1 2.5 nM) [nM]	IC50 (human JAK3) [nM]	IC50 (human JAK2) [nM]	IC50 (TYK2 JH2 domain) [nM]	IC50 (human JAK1) [nM]
CCC(=O)c1cnc(NC(=O)CC2CCN(C)CC2)cc1Nc1cccc(-c2ncn(C)n2)c1OC [Compound 23A, N-(4-((2-methoxy-3-(1-methyl-1H-1,2,4-triazol-3-yl)phenyl)amino)-5-propionylpyridin-2-yl)-2-(1-methylpiperidin-4-yl)acetamide]	≥ 500	≥ 500	≥ 500	5 to 50	–
CCC(=O)c1cnc(Nc2cc(OCCOC)n(C)n2)cc1Nc1cccc(-c2ncn(C)n2)c1OC [Compound 24A, 1-(4-((2-methoxy-3-(1-methyl-1H-1,2,4-triazol-3-yl)phenyl)amino)-6-((5-(2-methoxyethoxy)-1-methyl-1H-pyrazol-3-yl)amino)pyridin-3-yl)propan-1-one]	–	50 to 500	50 to 500	< 5	> 500
CCC(=O)c1cnc(NC(=O)C2CC2)cc1Nc1cc(F)cc(-c2ncn(C)n2)c1OC [Compound 25A, N-(4-((5-fluoro-2-methoxy-3-(1-methyl-1H-1,2,4-triazol-3-yl)phenyl)amino)-5-propionylpyridin-2-yl)cyclopropanecarboxamide]	≥ 500	≥ 500	≥ 500	5 to 50	–
CCC(=O)c1cnc(NC2=NN(C(=O)C3CC3)CC2)cc1Nc1cccc(-c2ncn(C)n2)c1OC [Compound 26A, 1-(6-((1-(cyclopropanecarbonyl)-4,5-dihydro-1H-pyrazol-3-yl)amino)-4-((2-methoxy-3-(1-methyl-1H-1,2,4-triazol-3-yl)phenyl)amino)pyridin-3-yl)propan-1-one]	≥ 500	≥ 500	≥ 500	5 to 50	–
